The values below come from patent US5189027A, “2-substituted adenosine derivatives and pharmaceutical compositions for circulatory diseases” (priority 1990, dated 1993).

Like-named read-outs stand apart in the source and are kept apart here. Some results are limits rather than exact numbers.

Data set [1] deals with T1, A1 adenosine receptors (Rattus norvegicus, UniProt P25099).
T1 construct: evaluated using Wister rat brain membranes; from tissue; host or cells: Wistar rat brain membranes
T1 sequence (P25099 1-326): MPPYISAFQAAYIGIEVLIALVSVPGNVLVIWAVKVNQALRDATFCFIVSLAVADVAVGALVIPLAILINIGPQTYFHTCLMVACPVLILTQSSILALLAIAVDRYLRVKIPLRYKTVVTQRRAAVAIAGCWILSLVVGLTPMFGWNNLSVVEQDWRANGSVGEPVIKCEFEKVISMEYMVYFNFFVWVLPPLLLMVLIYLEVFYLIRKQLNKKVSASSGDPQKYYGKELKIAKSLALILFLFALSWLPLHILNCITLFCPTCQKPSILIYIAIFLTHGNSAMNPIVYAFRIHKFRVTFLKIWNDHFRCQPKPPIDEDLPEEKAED
Kind of data set: Affinity for A1 adenosine receptors, [3H]-CHA binding to Wister rat brain membranes. The note with it: 2.5 nM [3H]-CHA, Cheng and Prusoff, read-out: Affinity for Adenosine Receptors A1, affinity constant (Ki). As for the experimental part:
The affinity of the compounds of the present invention for adenosine receptors was evaluated in substantially the same manner as is described in R. F. Bruns et al., Mol. Pharmacol., 29, 331-346 (1986); R. F. Bruns et al., Proc. Natl. Acad. Sci., U.S.A., 77, 5547 (1980); and Japanese Laid-Open Patent Publications Nos. 201196/1988 and 111996/1987. […] The above-obtained data were applied to the equation of Cheng and Prusoff, presented in Biochem. Pharmacol., 22, 3099 (1973), thereby finally obtaining the affinity constants (Ki). (See "Neurotransmitter and Receptor Binding". […] Kabushiki Kaisha (Sep. 15, 1987).)

Data set [2] relates to spontaneously hypertensive rats (SHRs). Kind of data set: Effect on blood pressure and heart rate in SHR. Format: in vivo, rat. As to conditions: for ED30: Rattus norvegicus, iv, 5 min, read-out: Blood Pressure ED30; for Heart Rate ED10: amount giving a 10 percent decrease in initial heart rate; for ED10/ED30: ratio of heart rate ED10 to blood pressure ED30 in SHR. How it is done: Male spontaneously hypertensive rats (SHRs) were anesthetized with urethane and α-chloralose. The blood pressure of the rats was measured with a pressure transducer through a polyethylene cannula inserted into the left carotid artery. The heart rate was monitored with a cardiotachometer triggered by the arterial pressure pulse. […] The blood pressure and the heart rate of the rats were measured 5 minutes after the respective administrations, and the maximum values thereof were determined.
Effects of the test compounds on the blood pressure and the heart rate were compared in terms of the ED30 and ED10 values.

In data set [3] the target is T2, A2 adenosine receptors (Rattus norvegicus, UniProt P30543).
T2 construct: evaluated using Wister rat striatal membranes; from tissue; host or cells: Wistar rat striatal membranes
T2 sequence (P30543 whole entry): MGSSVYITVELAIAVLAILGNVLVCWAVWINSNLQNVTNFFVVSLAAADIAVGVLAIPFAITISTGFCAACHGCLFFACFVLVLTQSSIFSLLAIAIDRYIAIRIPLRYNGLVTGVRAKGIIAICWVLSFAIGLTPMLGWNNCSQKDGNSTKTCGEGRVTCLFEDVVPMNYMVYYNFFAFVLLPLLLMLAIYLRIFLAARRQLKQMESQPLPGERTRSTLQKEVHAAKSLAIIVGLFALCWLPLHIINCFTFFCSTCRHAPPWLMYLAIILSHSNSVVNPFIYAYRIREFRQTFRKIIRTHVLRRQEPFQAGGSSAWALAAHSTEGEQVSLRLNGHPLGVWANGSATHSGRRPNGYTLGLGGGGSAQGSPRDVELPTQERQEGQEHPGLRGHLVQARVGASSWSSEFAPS
The data set can be described thus: Affinity for A2 adenosine receptors, [3H]-NECA binding to Wister rat striatal membranes. The note with it: for Ki: Wister rat striatal membranes, 5 nM [3H]-NECA, Cheng and Prusoff, read-out: Affinity for Adenosine Receptors A2, affinity constant (Ki).
Protocol: The affinity of the test compound for A2 receptors was also evaluated using Wister rat striatal membranes.
The selectivity for A1 and A2 receptors was obtained by calculating the ratio of the Ki value in terms of A2 receptors to that in terms of A1 receptors (A1 /A2).

Data set [4] concerns A2 adenosine receptors. The note with it: background statement; cited from earlier work.
Data set [5] has as its system A1 adenosine receptors. As to conditions: background statement; cited from earlier work.
The mark [6] stands for this setting: anesthetized male SHR, cumulative administration through femoral veins.

By Ki is commonly meant the dissociation constant of the complex between target and ligand, obtained from inhibition or displacement. For the compound `Nc1nc(C#CC2(O)CCCCC2)nc2c1ncn2[C@@H]1O[C@H](CO)[C@@H](O)[C@H]1O` [Compound No. 29, 2-[(1-hydroxycyclohexane-1-yl)ethynyl]adenosine], the Ki on A1 adenosine receptors [1] stood at 0.021 µM. In data set [2], the ED30 is 0.014 µg/kg and the ED10/ED30 came to 235. Further, the “Heart Rate ED10” value in data set [2] (setting [6]) worked out at 3.29 µg/kg.

As for `CCCCCCC#Cc1nc(N)c2ncn([C@@H]3O[C@H](CO)[C@@H](O)[C@H]3O)c2n1` [2-Octynyladenosine, reference compound], the Ki on A2 adenosine receptors [3] was 0.011 µM. Besides, the “A1/A2 (selectivity, ratio of Ki values)” value on A2 adenosine receptors [3] (ratio of Ki for A1 receptors to Ki for A2 receptors) is 12.1. In addition, the ED30 in data set [2] (amount giving a 30 percent decrease in initial blood pressure, anesthetized male SHR, cumulative administration through femoral veins) came out at 0.25 µg/kg. Also, the “Heart Rate ED10” value in data set [2] (setting [6]) was found to be 64.50 µg/kg. For the same compound, in data set [2], the ED10/ED30 came out at 258.

Take `Nc1nc(C#CCC2CCCCC2)nc2c1ncn2[C@@H]1O[C@H](CO)[C@@H](O)[C@H]1O` [Compound No. 26, 2-(3-cyclohexyl-1-propynyl)adenosine]: the Ki on A1 adenosine receptors [1] was determined as 0.208 µM. Besides, in data set [2], the ED30 was 0.126 µg/kg and the ED10/ED30 is more than 793. Further, the “Heart Rate ED10” value in data set [2] (setting [6]) is more than 100 µg/kg.

For `CCNC(=O)[C@H]1O[C@@H](n2cnc3c(N)ncnc32)[C@H](O)[C@@H]1O` [5'-N-ethylcarboxamideadenosine (NECA), 5'-N-ethylcarboxamideadenosine], the “affinity for A2 receptors” value in the data set with A2 adenosine receptors [4] is given as “high affinity for A2 receptors”. Further, the “affinity for A1 receptors” value in the data set on A1 adenosine receptors [5] is listed as “high affinity for A1 receptors”.

For `Nc1nc(C#CC2(O)CCCCCCC2)nc2c1ncn2[C@@H]1O[C@H](CO)[C@@H](O)[C@H]1O` [Compound No. 45, 2-[(1-hydroxycyclooctane-1-yl)ethynyl]adenosine], on A1 adenosine receptors [1], the Ki was 0.056 µM. Further, in data set [2], the ED30 is 0.012 µg/kg and the ED10/ED30 is recorded as 1231. Also, the “Heart Rate ED10” value in data set [2] (setting [6]) was 14.78 µg/kg.

With `Nc1nc(C#CCC2CCCC2)nc2c1ncn2[C@@H]1O[C@H](CO)[C@@H](O)[C@H]1O` [Compound No. 18, 2-(3-cyclopentyl-1-propynyl)adenosine], at A1 adenosine receptors [1], the Ki stood at 0.162 µM. The Ki at A2 adenosine receptors [3] amounted to 0.0023 µM. In data set [2], the ED30 amounted to 0.054 µg/kg and the ED10/ED30 is given as more than 1851. The “Heart Rate ED10” value in data set [2] (setting [6]) was more than 100 µg/kg.
